A short description of data set [1]: Body weight gain over 14 days after unilateral fimbria-fornix lesion with daily intracerebroventricular infusion. In kind it is in vivo, rat. The note with it: male Wistar rats, fimbria-fornix lesion/cannulation; icv 2 μL daily for 14 days; GPE 3 μg/day, IGF-I 20 μg/day, NGF 1 μg/day. The source says:
A group of male Wistar rats weighing 174-193 g (University of Auckland, Animal Resources Unit) were divided randomly into the following groups: “control”, “sham”, “vehicle”, “GPE”, “IGF-I”, and “NGF”, depending on the treatment each animal was to undergo. “Control” animals were weighed at the first and last time points and were not treated or handled at any other time. “Sham” animals underwent a sham surgery of anesthesia, incision through the scalp skin, drill hole through the skull, bone wax to seal the drill hole, and sutures for the skin incision. They were then handled daily in mock infusions to mimic handling of animals that received lesions and intracerebroventricular infusions.
“Vehicle”, “GPE”, “IGF-I”, and “NGF” animals were anaesthetized with 75 mg/Kg sodium pentobarbital and positioned in a stereotaxic apparatus (Kopf Instruments, USA), and underwent unilateral fimbria-fomix lesions to lesion septal cholinergic neurons and chronic cannula implantation into the left lateral cerebral ventricle. Fomix-fimbria lesions were performed by transecting the fimbria-fornix projection using a specialized retractable wire Scouten knife (Kopf Instruments) designed to minimize tissue damage except at the required lesion site. Anaesthetized animals received an incision through their scalp skin and a small drill hole was made in the skull at the stereotaxic coordinates anterior-posterior (AP) axis −1.0 mm from the bregma and medial-lateral (ML) axis +2.5 mm from midline (left side), from an atlas of the rat brain (Paxinos et al. (1986), “The rat brain in stereotaxic coordinates”, Academic Press, London). The knife was lowered into the brain through the drill hole to the coordinate +6.0 mm ventral to the skull on the dorsal-ventral (DV) axis. The knife blade was then extended 2.5 mm toward midline at an angle of 30° caudal to the bregma. The knife, with blade extended, was then raised 4.5 mm dorsally to axotomize the fimbriafomix fibres. The blade was then retracted, the knife lowered 4.5 mm to its original coordinate, and the process was repeated. […]

For data set [2] the following is noted: infused in the brain of adult rats with partial or full lesions, e.g. partial fimbria-fornix transection; cited from earlier work.
For data set [3] the following is noted: intracerebroventricular, patients with Alzheimer's disease; cited from earlier work.
For data set [4] the following is noted: administered to the brain of normal, unlesioned rats; cited from earlier work.
A short description of data set [5]: Weight gain in human patient suffering from a head injury, central administration for 14 days. The class given is in vivo. The protocol:
GPE in a dose of 10 μg/Kg/day is administered via lateral cerebroventricular injection into the brain of a human patient suffering from a head injury to promote weight gain to normal levels. Alternatively, a GPE analog is administered. Treatment is commenced as soon as possible after the head injury and then for 14 days thereafter.
A GPE analog in a dose of 20 μg/Kg/day is administered via focal injection into the lateral cerebral ventricle of a human patient suffering from a head injury to promote weight gain to normal levels. Alternatively, GPE is administered. Treatment is commenced as soon as possible after the head injury and then for 14 days thereafter.
GPE in a dose of 5 μg/Kg/day is administered via a surgically inserted shunt into the lateral cerebral ventricle of a human patient suffering from a head injury to promote weight gain to normal levels. Alternatively, a GPE analog is administered. Treatment is commenced as soon as possible after the head injury and then for 14 days thereafter.

The conditions of data set [6]: intravenous, humans after moderate to severe head injury; cited from earlier work.
For data set [7] the following is noted: administered into the brain, adult rats after transient forebrain ischemia; cited from earlier work.

Like-named read-outs stand apart in the source and are kept apart here.

Results on 6 molecules are retold here after US20020151522A1, “Regulation of weight” (priority 2001, published 2002).

For the molecule NGF: Nerve growth factor, in data set [1], the “weight gain over the 14 days” value was “no weight gain”. Besides, the “effect on body weight” value is recorded as “either decrease normal body weight gain or cause weight loss” in data set [2], “marked weight reduction” in data set [3] and “cause weight loss” in data set [4].
As to `NCC(=O)N1CCC[C@H]1C(=O)N[C@@H](CCC(=O)O)C(=O)O` [GPE, glycyl-L-prolyl-L-glutamic acid], the “weight gain in the patient” value in data set [5] (5 μg/Kg/day via surgically inserted shunt into the lateral cerebral ventricle), in data set [5] (10 μg/Kg/day via lateral cerebroventricular injection) and in data set [5] (20 μg/Kg/day via focal injection into the lateral cerebral ventricle) was “Normal weight gain is promoted” each time. Besides, the “weight gain over the 14 days” value in data set [1] is “the normally expected weight gain occurred”.
Consider IGF-I: insulin-like growth factor I, for which the “weight gain over the 14 days” value in data set [1] is “minimal weight gain”. The “effect on body weight” value in data set [6] and in data set [7] was “cause weight gain” in each case.
For the molecule bFGF: basic fibroblast growth factor, in data set [2], the “effect on body weight” value is reported as “either decrease normal body weight gain or cause weight loss”.

B1: BDNF: brain-derived neurotrophic factor (protein, UniProt P23560 19-247, looked up)
Neurotrophic factor BDNF …: APMKEANIRGQGGLAYPGVRTHGTLESVNGPKAGSRGLTSLADTFEHVIEELLDEDQKVRPNEENNKDADLYTSRVMLSSQVPLEPPLLFLLEEYKNYLDAANMSMRVRRHSDPARRGELSVCDSISEWVTAADKKTAVDMSGGTVTVLEKVPVSKGQLKQYFYETKCNPMGYTKEGCRGIDKRHWNSQCRTTQSYVRALTMDSKKRIGWRFIRIDTSCVCTLTIKRGR
For B1, the “effect on body weight” value in data set [2] is listed as “either decrease normal body weight gain or cause weight loss”; in data set [4], “cause weight loss”.

B2: GDNF: glial-derived neurotrophic factor (protein, UniProt P39905 78-211, looked up)
Glial cell line-derived …: SPDKQMAVLPRRERNRQAAAANPENSRGKGRRGQRGKNRGCVLTAIHLNVTDLGLGYETKEELIFRYCSGSCDAAETTYDKILKNLSRNRRLVSDKVGQACCRPIAFDDDLSFLDDNLVYHILRKHSAKRCGCI
Consider B2, for which the “effect on body weight” value in data set [2] is listed as “either decrease normal body weight gain or cause weight loss”; in data set [4] it was “cause weight loss”.
